Test results reported in PubChem BioAssay (NCI).
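A five-concentration, 48-hour dose response in 96-well plates underlies each endpoint, interpolated linearly between surrounding concentrations. Here, GI50 denotes the concentration required for 50% inhibition of growth. TGI denotes the concentration required for complete inhibition of growth.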

Key:
Test in all cases: NCI-60 cell line screen, 48 h
NCI-H460 lung = tested on: NCI-H460 lung
M14 melanoma = tested on: M14 melanoma
OVCAR-5 ovarian = tested on: OVCAR-5 ovarian
HCT-116 colon = tested on: HCT-116 colon
SW-620 colon = tested on: SW-620 colon
RPMI-8226 leukemia = tested on: RPMI-8226 leukemia
SR leukemia = tested on: SR leukemia
HS 578T breast = tested on: HS 578T breast
HCC-2998 colon = tested on: HCC-2998 colon
HL-60(TB) leukemia = tested on: HL-60(TB) leukemia
U251 CNS = tested on: U251 CNS
UO-31 renal = tested on: UO-31 renal
NCI/ADR-RES ovarian = tested on: NCI/ADR-RES ovarian
EKVX NSCLC = tested on: EKVX NSCLC
T-47D breast = tested on: T-47D breast
MDA-MB-231 breast = tested on: MDA-MB-231 breast
CAKI-1 renal = tested on: CAKI-1 renal
TK-10 renal = tested on: TK-10 renal
HCT-15 colon = tested on: HCT-15 colon
MCF7 breast = tested on: MCF7 breast
HOP-92 NSCLC = tested on: HOP-92 NSCLC
KM12 colon = tested on: KM12 colon
SNB-19 CNS = tested on: SNB-19 CNS
A549 NSCLC = tested on: A549 NSCLC
ACHN renal = tested on: ACHN renal
SK-OV-3 ovarian = tested on: SK-OV-3 ovarian
SF-295 CNS = tested on: SF-295 CNS
SK-MEL-28 melanoma = tested on: SK-MEL-28 melanoma
PC-3 prostate = tested on: PC-3 prostate
MDA-MB-435 = tested on: MDA-MB-435
DU-145 prostate = tested on: DU-145 prostate
K-562 leukemia = tested on: K-562 leukemia
SK-MEL-5 melanoma = tested on: SK-MEL-5 melanoma
SK-MEL-2 melanoma = tested on: SK-MEL-2 melanoma
COLO 205 colon = tested on: COLO 205 colon
786-0 renal = tested on: 786-0 renal
SNB-75 CNS = tested on: SNB-75 CNS
OVCAR-4 ovarian = tested on: OVCAR-4 ovarian
UACC-62 melanoma = tested on: UACC-62 melanoma
OVCAR-3 ovarian = tested on: OVCAR-3 ovarian
HOP-62 NSCLC = tested on: HOP-62 NSCLC
NCI-H226 lung = tested on: NCI-H226 lung
CCRF-CEM leukemia = tested on: CCRF-CEM leukemia
HT29 colon = tested on: HT29 colon
NCI-H522 lung = tested on: NCI-H522 lung
IGROV1 ovarian = tested on: IGROV1 ovarian
SF-539 CNS = tested on: SF-539 CNS
SF-268 CNS = tested on: SF-268 CNS
SN12C renal = tested on: SN12C renal
MOLT-4 leukemia = tested on: MOLT-4 leukemia
MALME-3M melanoma = tested on: MALME-3M melanoma
LOX IMVI melanoma = tested on: LOX IMVI melanoma
A498 renal = tested on: A498 renal
NCI-H23 lung = tested on: NCI-H23 lung

COc1cc2c3c(ncc2c(OC)c1OC)-c1cc2c(cc1C3)OCO2
GI50 (NCI-H460 lung): > 100 µM
TGI (NCI-H460 lung): > 100 µM
GI50 (M14 melanoma): > 100 µM
TGI (M14 melanoma): > 100 µM
GI50 (OVCAR-5 ovarian): 58.5 µM
TGI (OVCAR-5 ovarian): > 100 µM
GI50 (HCT-116 colon): 22.1 µM
TGI (HCT-116 colon): 36.5 µM
GI50 (SW-620 colon): 66.4 µM
TGI (SW-620 colon): > 100 µM
GI50 (RPMI-8226 leukemia): 33.4 µM
TGI (RPMI-8226 leukemia): > 100 µM
GI50 (SR leukemia): 0.25 µM
TGI (SR leukemia): 17.6 µM
GI50 (HS 578T breast): 13.3 µM
TGI (HS 578T breast): 37.5 µM
GI50 (HCC-2998 colon): > 100 µM
TGI (HCC-2998 colon): > 100 µM
GI50 (HL-60(TB) leukemia): 0.0288 µM
TGI (HL-60(TB) leukemia): 4.26 µM
GI50 (U251 CNS): 27.6 µM
TGI (U251 CNS): > 100 µM
GI50 (UO-31 renal): 19.8 µM
TGI (UO-31 renal): 68 µM
GI50 (NCI/ADR-RES ovarian): 36.9 µM
TGI (NCI/ADR-RES ovarian): > 100 µM
GI50 (EKVX NSCLC): 17.2 µM
TGI (EKVX NSCLC): 73.9 µM
GI50 (T-47D breast): 26.2 µM
TGI (T-47D breast): 89.8 µM
GI50 (MDA-MB-231 breast): 11.5 µM
TGI (MDA-MB-231 breast): 29.5 µM
GI50 (CAKI-1 renal): 42.5 µM
TGI (CAKI-1 renal): > 100 µM
GI50 (TK-10 renal): 19.3 µM
TGI (TK-10 renal): 46.5 µM
GI50 (HCT-15 colon): 32.6 µM
TGI (HCT-15 colon): > 100 µM
GI50 (MCF7 breast): 15.6 µM
TGI (MCF7 breast): 59 µM
GI50 (HOP-92 NSCLC): 61.1 µM
TGI (HOP-92 NSCLC): > 100 µM
GI50 (KM12 colon): > 100 µM
TGI (KM12 colon): > 100 µM
GI50 (SNB-19 CNS): 26.1 µM
TGI (SNB-19 CNS): 55.6 µM
GI50 (A549 NSCLC): 82.9 µM
TGI (A549 NSCLC): > 100 µM
GI50 (ACHN renal): 20.7 µM
TGI (ACHN renal): 47.2 µM
GI50 (SK-OV-3 ovarian): 21.6 µM
TGI (SK-OV-3 ovarian): 61.4 µM
GI50 (SF-295 CNS): 29.8 µM
TGI (SF-295 CNS): > 100 µM
GI50 (SK-MEL-28 melanoma): 39.1 µM
TGI (SK-MEL-28 melanoma): > 100 µM
GI50 (PC-3 prostate): > 100 µM
TGI (PC-3 prostate): > 100 µM
GI50 (MDA-MB-435): > 100 µM
TGI (MDA-MB-435): > 100 µM
GI50 (DU-145 prostate): 26.9 µM
TGI (DU-145 prostate): > 100 µM
GI50 (K-562 leukemia): 4.27 µM
TGI (K-562 leukemia): 20.5 µM
GI50 (SK-MEL-5 melanoma): 54.1 µM
TGI (SK-MEL-5 melanoma): > 100 µM
GI50 (SK-MEL-2 melanoma): 11.7 µM
TGI (SK-MEL-2 melanoma): 45.3 µM
GI50 (COLO 205 colon): > 100 µM
TGI (COLO 205 colon): > 100 µM
GI50 (786-0 renal): 33.7 µM
TGI (786-0 renal): > 100 µM
GI50 (SNB-75 CNS): > 100 µM
TGI (SNB-75 CNS): > 100 µM
GI50 (OVCAR-4 ovarian): 54 µM
TGI (OVCAR-4 ovarian): > 100 µM
GI50 (UACC-62 melanoma): 22.4 µM
TGI (UACC-62 melanoma): 65.9 µM

N=C(N)c1ccc(-c2ccc(-c3cc(Cl)cc(Cl)c3)o2)o1
GI50 (RPMI-8226 leukemia): 2.13 µM
TGI (RPMI-8226 leukemia): 4.63 µM
GI50 (HS 578T breast): 2.22 µM
TGI (HS 578T breast): 5.02 µM
GI50 (HL-60(TB) leukemia): 1.62 µM
TGI (HL-60(TB) leukemia): 3.49 µM
GI50 (CAKI-1 renal): 1.7 µM
TGI (CAKI-1 renal): 3.11 µM
GI50 (TK-10 renal): 1.85 µM
TGI (TK-10 renal): 3.39 µM
GI50 (KM12 colon): 1.65 µM
TGI (KM12 colon): 3.18 µM
GI50 (SK-OV-3 ovarian): 1.8 µM
TGI (SK-OV-3 ovarian): 3.34 µM
GI50 (MDA-MB-435): 1.61 µM
TGI (MDA-MB-435): 2.99 µM
GI50 (DU-145 prostate): 1.78 µM
TGI (DU-145 prostate): 3.24 µM
GI50 (OVCAR-3 ovarian): 1.7 µM
TGI (OVCAR-3 ovarian): 3.14 µM

COc1nc(C)cc2c(=O)n(-c3ccccc3)n(CC(O)CN3CCN(c4ccc(Cl)cc4)CC3)c(=O)c12 (stereo unspecified)
GI50 (NCI-H460 lung): > 50 µM
TGI (NCI-H460 lung): > 50 µM
GI50 (M14 melanoma): > 50 µM
TGI (M14 melanoma): > 50 µM
GI50 (OVCAR-5 ovarian): > 50 µM
TGI (OVCAR-5 ovarian): > 50 µM
GI50 (HOP-62 NSCLC): 37.9 µM
TGI (HOP-62 NSCLC): > 50 µM
GI50 (HCT-116 colon): > 50 µM
TGI (HCT-116 colon): > 50 µM
GI50 (SW-620 colon): > 50 µM
TGI (SW-620 colon): > 50 µM
GI50 (RPMI-8226 leukemia): > 50 µM
TGI (RPMI-8226 leukemia): > 50 µM
GI50 (SR leukemia): > 50 µM
TGI (SR leukemia): > 50 µM
GI50 (HS 578T breast): 18.8 µM
TGI (HS 578T breast): > 50 µM
GI50 (HCC-2998 colon): > 50 µM
TGI (HCC-2998 colon): > 50 µM
GI50 (HL-60(TB) leukemia): > 50 µM
TGI (HL-60(TB) leukemia): > 50 µM
GI50 (U251 CNS): 30.6 µM
TGI (U251 CNS): > 50 µM
GI50 (NCI-H226 lung): > 50 µM
TGI (NCI-H226 lung): > 50 µM
GI50 (UO-31 renal): 46.6 µM
TGI (UO-31 renal): > 50 µM
GI50 (CCRF-CEM leukemia): > 50 µM
TGI (CCRF-CEM leukemia): > 50 µM
GI50 (HT29 colon): > 50 µM
TGI (HT29 colon): > 50 µM
GI50 (NCI-H522 lung): 25.8 µM
TGI (NCI-H522 lung): > 50 µM
GI50 (NCI/ADR-RES ovarian): > 50 µM
TGI (NCI/ADR-RES ovarian): > 50 µM
GI50 (EKVX NSCLC): > 50 µM
TGI (EKVX NSCLC): > 50 µM
GI50 (T-47D breast): > 50 µM
TGI (T-47D breast): > 50 µM
GI50 (MDA-MB-231 breast): > 50 µM
TGI (MDA-MB-231 breast): > 50 µM
GI50 (CAKI-1 renal): > 50 µM
TGI (CAKI-1 renal): > 50 µM
GI50 (IGROV1 ovarian): > 50 µM
TGI (IGROV1 ovarian): > 50 µM
GI50 (TK-10 renal): > 50 µM
TGI (TK-10 renal): > 50 µM
GI50 (HCT-15 colon): > 50 µM
TGI (HCT-15 colon): > 50 µM
GI50 (MCF7 breast): 46.1 µM
TGI (MCF7 breast): > 50 µM
GI50 (HOP-92 NSCLC): 7.08 µM
TGI (HOP-92 NSCLC): 18.5 µM
GI50 (KM12 colon): > 50 µM
TGI (KM12 colon): > 50 µM
GI50 (SF-539 CNS): 22.7 µM
TGI (SF-539 CNS): > 50 µM
GI50 (SF-268 CNS): 24.8 µM
TGI (SF-268 CNS): > 50 µM
GI50 (SNB-19 CNS): 17.5 µM
TGI (SNB-19 CNS): > 50 µM
GI50 (SN12C renal): > 50 µM
TGI (SN12C renal): > 50 µM
GI50 (MOLT-4 leukemia): > 50 µM
TGI (MOLT-4 leukemia): > 50 µM
GI50 (A549 NSCLC): > 50 µM
TGI (A549 NSCLC): > 50 µM
GI50 (ACHN renal): 43.3 µM
TGI (ACHN renal): > 50 µM
GI50 (SK-OV-3 ovarian): 22.3 µM
TGI (SK-OV-3 ovarian): > 50 µM
GI50 (SF-295 CNS): 36.4 µM
TGI (SF-295 CNS): > 50 µM
GI50 (SK-MEL-28 melanoma): > 50 µM
TGI (SK-MEL-28 melanoma): > 50 µM
GI50 (PC-3 prostate): 25.9 µM
TGI (PC-3 prostate): > 50 µM
GI50 (MDA-MB-435): > 50 µM
TGI (MDA-MB-435): > 50 µM
GI50 (DU-145 prostate): > 50 µM
TGI (DU-145 prostate): > 50 µM
GI50 (K-562 leukemia): > 50 µM
TGI (K-562 leukemia): > 50 µM
GI50 (SK-MEL-5 melanoma): 32.6 µM
TGI (SK-MEL-5 melanoma): > 50 µM
GI50 (MALME-3M melanoma): > 50 µM
TGI (MALME-3M melanoma): > 50 µM
GI50 (SK-MEL-2 melanoma): 43.1 µM
TGI (SK-MEL-2 melanoma): > 50 µM
GI50 (COLO 205 colon): > 50 µM
TGI (COLO 205 colon): > 50 µM
GI50 (786-0 renal): 25.8 µM
TGI (786-0 renal): > 50 µM
GI50 (LOX IMVI melanoma): > 50 µM
TGI (LOX IMVI melanoma): > 50 µM
GI50 (A498 renal): > 50 µM
TGI (A498 renal): > 50 µM
GI50 (SNB-75 CNS): 10.1 µM
TGI (SNB-75 CNS): 27.8 µM
GI50 (OVCAR-4 ovarian): 36.8 µM
TGI (OVCAR-4 ovarian): > 50 µM
GI50 (UACC-62 melanoma): 46.6 µM
TGI (UACC-62 melanoma): > 50 µM
GI50 (NCI-H23 lung): > 50 µM
TGI (NCI-H23 lung): > 50 µM
GI50 (OVCAR-3 ovarian): 34.3 µM
TGI (OVCAR-3 ovarian): > 50 µM
